Measurements reported in patent publication US20220127297A1, “Novel Antibacterial 3"-Derivatives Of 4,6-Disubstituted 2,5-Dideoxystreptamine Aminoglycoside Antibiotics” (AGILeBiotics B.V., priority 2018, published 2022).
Converted amounts (≈) assume the structure as drawn.

System: E. faecalis DSM 2570
Assay: MIC 50, broth micro-dilution, DSM strains
Type: cell-based, Enterococcus faecalis
Conditions: not given
Excerpt: 3.2 Against Selected Bacteria of the ESKAPE Panel and Enterococcus faecalis (DSM Strains)
Tested reference compounds. Amikacin sulfate (Cat. No. 01693, Chem-Impex), Gentamicin sulfate (Cat. No. G4918, Sigma Aldrich).
Microbial strains. Enterococcus faecalis DSM 2570, Klebsiella pneumoniae DSM 26371, Acinetobacter baumannii DSM 105126, Enterobacter cloacae 3MRGN (clinical bronchial aspirate isolate).
Culture media and equipment. BBL™ Mueller Hinton Broth 2 (Lot. BCBW1143, Cat. No. 70192, Sigma); Trypcase Soy Blood-agar plates (Cat. No. 43001, Biomérieux); Cryoinstant (contains 15% glycerol; Cat. No. 822070ZA, VWR International); GasPak™ EZ Standard Incubation Container (Cat. No. 260671, Becton Dickinson); GasPak™ EZ Campy Container System Sachets (Cat. No. 260680, Becton Dickinson); 96-well deep well plate, 1 mL (Cat. No. 0030506.200, Eppendorf); Plate lid (Cat. No. 0030131.525, Eppendorf); 96-well plate, F-bottom (Cat. No. 260860, Nunc); Incubator (Sartorius Certomat BS-1); Laminar flow (Heraeus HS12); UV/VIS meter (Perkin Elmer Lambda Bio+); Platereader (Tecan Infinite M200 Pro).
Compound preparation. Compounds were prepared in MH2 media at a concentration of 5 mM and stored at 4° C. For testing, solutions of 128 μM were prepared in MH2, for tests against E. faecalis a solution of 512 μM was prepared. Out of these working solutions, 400 μL was transferred to wells in the first column of 96-well deep well plates. Each compound was transferred in triplicate. Plates were previously filled with 200 μL of MH2 media in all wells except for the wells in the first column. After compound and antibiotic addition, the compounds were serial two-fold diluted by transferring 200 μL from the first to the second column, then from the second to the third column and so on. Finally, 200 μL was removed from the last column.
Inoculum preparation. Microorganisms used were all revived from 15% glycerol storage in Croinstant tubes at −28° C. by plating them on blood agar plates. A. baumanni, and E. cloacae were grown aerobically at 37° C., E. faecalis was grown microaerophilically at 37° C., and K. pneumoniae was grown aerobically at 37° C. Plates were stored at 4° C. for up to two weeks, after which new plates were prepared from −28° C. A single colony was inoculated in MH2 media and grown at 37° C. and 200 rpm to an optical density (measured by UV/Vis spectroscopy) of 0.6-0.8 at 600 nm. Out of these suspensions, actual inoculums were prepared by diluting them to an optical density of 0.1 in MH2 media. From these inoculums, 200 μL was transferred to each well, resulting in a final compound concentration range of 64 μM-31.3 nM for, K. pneumoniae, A. baumanni, and E. cloacae, and 256 μM-125 nM for E. faecalis. Plates inoculated with E. faecalis were placed inside a GasPak™ Container System with GasPak™ Campy Container System sachets. All plates were incubated at 200 rpm for 18 h under the microorganism culturing conditions mentioned above.
MIC determination. After 18 h of growth, 200 μL was transferred to a 96-well F-bottom plate. The optical density was determined by a plate reader at 600 nm, with 10 s shaking before reading. Triplicate measurements were averaged, and a growth curve was plotted in Excel. The first column in which the growth reached half the value of maximum growth was determined as the MIC50 value for that particular compound.
MIC50. The MIC50 of a compound was assigned at which the bacterial growth reached half the value of maximum growth.

Row | SMILES | MIC50 [µM]
1 | NCC[C@H](O)C(=O)N[C@@H]1CC(N)[C@@H](O[C@H]2OC(CN)[C@@H](O)CC2N)[C@H](O)C1OC1O[C@H](CO)[C@@H](O)C(N)[C@H]1O (stereo partly drawn) [ABX5004, Tobra-AHB] | 32 (≈ 18.2 µg/mL)
2 | NCCC(O)C(=O)NC1CC(N)C(OC2OC(CN)C(O)C(O)C2N)C(F)C1OC1OC(CO)C(O)C(N)C1O (stereo not drawn) [ABX4007, KanaB-AHB-F] | 32 to 64

Same assay, conditions: Enterococcus faecalis, DSM2570, read-out: MIC 50

Row | SMILES | MIC50 [µM]
3 | N=C(NCc1ccncc1)NC1[C@@H](O)C(OC2[C@@H](F)[C@H](O[C@H]3OC(CN)[C@@H](O)CC3N)C(N)C[C@H]2NC(=O)[C@@H](O)CCN)O[C@H](CO)[C@H]1O (stereo partly drawn) [ABX5048, Tobra-AHB-F-Gua pyridin-4-yl methyl] | 8 (≈ 5.63 µg/mL)
4 | N=C(N)NC1[C@@H](O)C(OC2[C@@H](F)[C@H](O[C@H]3OC(CN)[C@@H](O)[C@H](O)C3O)C(N)C[C@H]2NC(=O)[C@@H](O)CCN)O[C@H](CO)[C@H]1O (stereo partly drawn) [ABX3003, 3′epi-KanaA-AHB-F-Gua] | 64 (≈ 40.3 µg/mL)
5 | NCC[C@H](O)C(=O)N[C@@H]1C[C@H](N)[C@@H](O[C@H]2O[C@H](CN)[C@@H](O)[C@H](O)[C@H]2O)[C@H](O)[C@H]1O[C@H]1O[C@H](CO)[C@@H](O)[C@H](N)[C@H]1O [Amikacin, amikacin, reference compound] | > 64
6 | N=C(N)NC1[C@@H](O)C(OC2[C@@H](F)[C@H](O[C@H]3OC(CNCCO)[C@@H](O)CC3N)C(N)C[C@H]2NC(=O)[C@@H](O)CCN)O[C@H](CO)[C@H]1O (stereo partly drawn) [ABX5045, 6N-2-hydroxy-ethyl-Tobra-AHB-F-Gua] | 8 to 16 (≈ 5.25 to 10.5 µg/mL)
